Measurements taken from patent US8865747B2, “Pioglitazone for use in the treatment of adrenoleukodystrophy” (Fundació Institut D'Investigació Biomèdica de Bellvitge …, priority 2012, dated 2014).
“Also recorded” adds a separate entry of the source.

Key:
X-ALD patients = conditions: recent study in X-ALD patients; cited from earlier work
[1] = tested on: Abcd1−/Abcd2−/− (DKO) mice; test: Horizontal bar cross test; conditions: after 2 months of treatment, FIG. 19
Experimental: We set up a preclinical trial to assess the effect of pioglitazone on the progression of clinical signs using DKO null mice as the model Animals were randomly assigned to one of the following groups.
The bar cross test was carried out using a wooden bar of 100 cm in length and 2 cm in width (diameter). This bar is just wide enough for the mice to stand on with their hind feet hanging over the edge such that any slight lateral misstep will result in a slip. […] Bar cross test was performed basically as previously described [Lopez-Erauskin J. et al., Ann.
Mice were evaluated by the treadmill test and the bar-cross at the start and re-scored after 2 (i.e 15 months of age), and 4 months (i.e. 17 months of age) of the treatment.

Abcd1-null mice [2] = test: ATP levels, NAD-NADH determination and pyruvate kinase activity in spinal cord; assay type: in vivo, mouse; conditions: Abcd1− mice fed 2 months with pioglitazone, 12 months of age
Experimental: (§1) Pioglitazone (Actos®) was mixed into AIN-76A chow from Dyets (Bethlehem, Pa.) at 0.012% w/w, corresponding to a dose of 9 mg/kg/day per mice [Yan Q. et al., J. Neurosci. 2003, 23, 7504-7509]. […] .
To determine ATP levels, mice were sacrificed by cervical dislocation and spinal cords immediately frozen in liquid nitrogen and stored at −80° C. ATP was extracted with cold perchloric acid (10%) from 10 mg of spinal cord, neutralized with KOH and centrifugated [Khan H. A. et al., J. Biosci. 2003, 28, 379-382]. Then, ATP concentrations were quantified in triplicate per animal using the ATPlite 1 step (PerkinElmer) according to the manufacturer's protocol. Data were normalized to mg of proteins. All assays were performed in triplicate.
NAD^+ and NADH were quantified by the NAD cycling assay and pyruvate kinase activity was determined by a spectrophotometrical method as previously described [Galino J. et al., Antiox. Redox Signal 2011, 15, 2095-2107].

Abcd1-null mice [3] = test: GC/MS measurement of oxidative lesion markers in spinal cord proteins; assay type: in vivo, mouse; conditions: Abcd1− mice fed 2 months with pioglitazone, FIG. 15a
Experimental: as §1

Abcd1-null mice [4] = test: Relative gene expression by quantitative RT-PCR in spinal cord; assay type: in vivo, mouse; conditions: Abcd1− mice fed 2 months with pioglitazone, 12 months of age, FIG. 12
Experimental: as §1
First tissues were lysed using Trizol reagent (Invitrogen), then total RNA was extracted using RNeasy Kit (Qiagen). Lysis and extraction were performed according to the manufacturer's instructions. Total DNA from tissues was extracted using Gentra Puregene Tissue Kit (Qiagen) according to the manufacturer's instructions.
[…] of RNA was transcribed into cDNA using Superscript II reverse transcription reagents in a final volume of 25 μl (Invitrogen). A TaqMan real time PCR was performed within the ABI PRISM 7300HT sequence detection system using the TaqMan Universal PCR master mix and the standardized primers for mouse SIRT1 (Mm00490758) PGC-1α (Mm00447183), PGC-1β (Mm01258518), ERRα (Mm00433143), NRF-1 (Mm00447996), TFAM (Mm00447485), TFB1M (Mm00524825) and TFB2M (Mm01620397). To measure gene expression and mtDNA abundance 0.1 to 0.2 μl of cDNA and 100 ng of DNA were respectively used.
To quantify mouse and human mtDNA content, two probes (mouse cytochrome b (cytb) (Gene ID: 17711) and human cytochrome c […] subunit II (COXII) (Gene ID: 4513) were respectively designed (Custom TaqMan Gene Expression Assays; Applied Biosystems). The sequences for mouse cytb primers were: […] (SEQ ID NO: 1) (forward) and […] (SEQ ID NO: 2) (reverse) and the FAM-labeled probe was TTGCAACTATAGCAACAG (SEQ ID NO: 3). The sequences for human COXII primers were: […] (SEQ ID NO: 4) (forward) and […] (SEQ ID NO: 5) (reverse) and the FAM-labeled probe was AAATCTGTGGAGCAAACC (SEQ ID NO: 6). Quantification of mtDNA was referred to nuclear DNA as determined by the amplification of the intronless nuclear gene C/EBPα. (Mouse and human CEBPα are respectively: Mm00514283, Hs00269972.). Each sample was run in duplicate, and the mean value of the duplicate was used to calculate the mRNA expression of the genes of interest which were normalized to that of the reference control (18S, Hs99999901) using the comparative (2^−ΔCt) method, according to the manufacturer's instructions.

SIRT1 [5] = test: SIRT1 immunoprecipitation and carbonyl (DNPH) measurement in spinal cord; assay type: in vivo, mouse; conditions: Abcd1− mice fed 2 months with pioglitazone, 12 months of age, FIG. 13
Experimental: as §1
Since the specific carbonylated SIRT1 antibody is not available, SIRT1 has been immunoprecipitated to measure carbonyl levels, as earlier described [Caito S. et al., Faseb J. 2010, 24, 3145-3159]. Protein (200 μg) extracted from whole spinal cord in a final volume of 400 μl RIPA buffer was incubated for 1 h with SIRT1 antibody [12193, (Abcam)] ((Abcam, 12193), dilution 1:80). Protein A sepharose (Amersham) was suspended in PBS for 1 h then blocked in BSA (1%) for 1 h. Protein A sepharose (50 μl ) was added to each sample and left overnight at 4° C. on a rotator. The samples are then centrifuged at 13,000 rpm at 4 ° C. for 5 min. […] Neural. 2011, 70, 84-92].

[6] = Weight and food intake during dietary treatment; assay type: in vivo, mouse; conditions: both protocols of treatment (Abcd1-null 2 months; DKO 4 months), 9 mg/kg/day in chow
Experimental: Pioglitazone (Actos®) was mixed into AIN-76A chow from Dyets (Bethlehem, Pa.) at 0.012% w/w, corresponding to a dose of 9 mg/kg/day per mice [Yan Q. et al., J. Neurosci. 2003, 23, 7504-7509]. […] Neurol. […] Mol. Genet. […] Mol. Genet. […] Mol. Genet. 2005, 14, 3565-3577].

SIRT1 [7] = test: SIRT1 fluorometric activity assay on spinal cord protein; assay type: in vivo, mouse; conditions: Abcd1− mice fed 2 months with pioglitazone, 12 months of age, FIG. 13
Experimental: as §1
We used a SIRT1 fluorometric assay kit (BIOMOL) based on the generation of a fluorophore via the NADtdependent deacetylation by SIRT1 of its substrate, which is a peptide comprising amino acids 379-382 of human p53 (Arg-His-Lys-Lys(Acetyl) (SEQ ID NO: 7) [Howitz K. T. et al., Nature 2003, 425, 191-196; and Vaziri H. et al., Cell 2001, 107, 149-159]. The assay's fluorescence signal is generated in proportion to the amount of Lys-382 deacetylation [Chabi B. et al., J. Appl. Physiol. 2009, 107, 1730-1735]. Briefly, 25 μg of total protein were incubated with Fluor de Lys-Sirt1 substrate (100 μM) and NAD^+ (100 μM) at 37° C. for 30 min in a final volume of 50 μl. The reaction was stopped by the addition of 50 μl of developer reagent and nicotinamide (2 mM) and the fluorescence was subsequently monitored for 30 min at 360 nm (excitation) and 460 nm (emission).

[8] = tested on: Abcd1−/Abcd2−/− (DKO) mice; test: Immunohistochemistry / histology of dorsal spinal cord (axonal degeneration); conditions: pioglitazone 4 months (13 to 17 months of age)
Excerpt: We set up a preclinical trial to assess the effect of pioglitazone on the progression of clinical signs using DKO null mice as the model Animals were randomly assigned to one of the following groups. […] We treated animals for 4 months starting at 13 months of age in order to start treatment at the onset of clinical signs [Lopez-Erauskin J. et al., Ann.
Spinal cords were harvested from 18 month-old wild type (WT), Abcd1^−/Abcd2^−/− (DKO) and Abcd1^−/Abcd2^−/− fed with pioglitazone for 4 months (DKO+PIO), after perfusion with PFA 4%, basically as described [Lopez-Erauskin J. et al., Ann. […] Spinal cords were embedded in paraffin and serial sections, 5 μm thick, were cut in a transversal or longitudinal plane.
The number of abnormal specific profiles was counted at every 10 sections for each particular stain. At least three sections corresponding to the dorsal columns of the spinal cord were analysed per animal and per stain. Results were expressed as mean values±standard deviations.
Immunohistochemistry experiments were performed.

Abcd1-null mice [9] = test: Western blot of mitochondrial and antioxidant proteins in spinal cord; assay type: in vivo, mouse; conditions: Abcd1− mice fed 2 months with pioglitazone
Excerpt: The following antibodies were used for Western Blots: anti-mouse NADH-ubiquinol oxidoreductase (NDUFB8: complex I): dilution 1/2000 (Molecular Probes); anti-mouse anti-Porin 31HL (VDAC or Voltage Dependant Anion Channel): dilution 1/1000 (Calbiochem); anti-rabbit DNP: dilution 1/100 (Invitrogen); anti-mouse PGC-1a: dilution 1/1000 (ST1202, Calbiochem); anti-rabbit SIRT1 for mouse: dilution 1/500 (12193, Abcam); anti-rabbit SIRT1 for human: dilution 1/500 (32441, Abcam) and anti-mouse γ-tubulin: dilution 1/5000 (T6557, clone GTU-88, Sigma). Goat anti-rabbit IgG linked to horseradish peroxidase, dilution: 1/15000 (P0448, Dako, Glostrup, Denmark) and Goat anti-mouse IgG linked to horseradish peroxidase, dilution: 1/15000 (G21040, Invitrogen) have been used as secondary antibodies.
as §1
Tissues were removed from euthanized mice and flash-frozen on liquid nitrogen. Frozen tissues were homogenized in RIPA buffer boiled for 5 min and centrifuged. We measured protein concentration of the supernatant with a BCA (bicinchoninic acid) Protein Assay Kit (Pierce). 10 to 100 μg were loaded onto each lane of 10% polyacrylamide gels for 60 min at […]. Resolved proteins were transferred to nitrocellulose. Proteins were detected with ECL western blotting analysis system (Amersham Biosciences).

[10] = Yamada T. et al. 2000; cited from earlier work
[11] = spinal cord, 12 months of age, FIG. 11

In the case of CCCC(CCC)C(=O)O [VPA, valproic acid], the adverse effects (X-ALD patients) is listed as “adverse effects such as trembling”.

For CCc1ccc(CCOc2ccc(CC3SC(=O)NC3=O)cc2)nc1 (racemic) [pioglitazone, 5-(4-[2-(5-ethylpyridin-2-yl)ethoxy]benzyl)thiazolidine-2,4-dione], the number of slips [1] was “full normalisation”, the “time used to cross the bar” value [1] was “full normalisation” and the ATP levels (Abcd1-null mice [2]; FIG. 14a) was “normalised”. The NADH levels (Abcd1-null mice [2]; FIG. 14b) was “normalised”, the “activity of pyruvate kinase” value (Abcd1-null mice [2]; FIG. 14c) was “normalised” and the AASA content (Abcd1-null mice [3]) was “normalized”. The “CEL (glycoxidative) content” value (Abcd1-null mice [3]) was “normalized”, the GSA content (Abcd1-null mice [3]) was “normalized” and the “MDAL (lipoxidative) content” value (Abcd1-null mice [3]) was “normalized”. For the same compound, the “NRF1 mRNA” value (Abcd1-null mice [4]) was “increased”, the SIRT1 expression (Abcd1-null mice [4]) was “no effect” and the “TFAM mRNA” value (Abcd1-null mice [4]) was “increased”. For the same compound, the “expression of PGC-1α mRNA” value (Abcd1-null mice [4]) was “increased”, the “levels of carbonylation on SIRT1 protein (SIRT1 oxidation)” value (SIRT1 [5]) was “lowered; also recorded: normalized” and the food intake [6] was “no effect”. The weight [6] was “no effect”, the SIRT1 activity (SIRT1 [7]) was “rescued; also recorded: normalized” and the “number of reactive astrocytes” value ([8]; FIG. 16) was “strikingly reduced to control levels”. The “number of reactive microglia” value ([8]; FIG. 16) was “strikingly reduced to control levels”, the “accumulation of markers of axonal damage (APP, synaptophysin in axonal swellings)” value ([8]; FIG. 16, 17) was “strikingly reduced to control levels” and the GPX1 protein level (Abcd1-null mice [9]; FIG. 15b) was “normalized”. The NDUFB8 protein level (Abcd1-null mice [9]; [11]) was “increased” and the VDAC protein level (Abcd1-null mice [9]; [11]) was “increased”.

For CC[C@H](C)C(=O)O[C@H]1C[C@@H](C)C=C2C=C[C@H](C)[C@H](CC[C@@H]3C[C@@H](O)CC(=O)O3)[C@H]21 [Lovastatin], the effect in vitro [10] is given as “some effect”.
